Measurements taken from patent publication US8163788B2, “Low-molecular inhibitors of cytohesin-family guanine nucleotide exchange factors” (Rheinische Friedrich-Wilhelms Universitat Bonn, priority 2004, dated 2012).

Legend:
Type in all cases: cell-based
[1] = tested on: Peripheral blood lymphocytes; experiment: cytotoxicity by propidium iodide (PI) flow cytometry; settings: 50 nM to 50 μM
Method: The cytotoxicity of the compound according to Formula (9) was determined by means of propidium iodide (PI) employing flow cytometry. PI is a DNA stain that cannot penetrate into living cells. The experiments were carried out in an incubator at 37° C. [98.6° F.] and 5% CO2.
Peripheral blood lymphocytes were incubated with concentrations of 50 nM, 100 nM, 1 μM, 5 μM, 20 μM or 50 μM of the compound according to Formula (9) in “VLE-RPMI+/+” (Biochrom). The DMSO concentration per batch was 0.5%. A control batch contained 0.5% DMSO. After 2 hours, 24 hours and 72 hours, cells were removed and incubated with 2 μg/ml of PI for 5 minutes. The cells were centrifuged at 200×g for 8 minutes, washed with PBS, centrifuged again and analyzed in a flow cytometer (Beckmann Coulter, Krefeld).

[2] = tested on: human dendritic cells; experiment: adhesion of dendritic cells to the substrate ICAM-1; settings: 1 μM, 10 μM or 15 μM, 96 hours; stimulation with PMA or MEM-48; FIG. 4
Method: (§1) Dendritic cells were produced in vitro by means of differentiation factors (IL-4 and GM-CSF) from blood monocytes that were isolated from peripheral mononuclear cells (PBMC) by Ficoll density gradient centrifugation from the human blood of anonymous donors.
The blood was mixed at a ratio of 1:1 with PBS (KCl 0.2 g/l, KH2PO4 0.2 g/l, NaCl 8 g/l, Na2HPO4 1.15 g/l, PAA, Cölbe)/2 mM EDTA and layered onto half the volume of Ficoll. Centrifugation was carried out at 300×g, 30 minutes with no brake. After the centrifugation, a centered white band appeared which contained the PBMC. This was picked up with PBS/2 mM EDTA, filled up to 50 ml and subjected to several washing steps at 640×g, 500×g, 400×g, 300×g and 200×g. […]
(§2) The quantitative analysis of the cell migration was carried out in modified Boyden chambers consisting of a 24-hole plate into which the Transwell® filters with a 5 μm pore size had been placed. […] [98.6° F.] and 5% CO2 in the incubator and subsequently, the number of cells that had migrated into the lower chamber in the direction of the chemokine was determined. […]
Under corresponding conditions, the adhesion was determined after stimulation with phorbolester (PMA, 50 ng/ml, Sigma, Taufkirchen) or anti-beta-2 integrin antibodies MEM-48 (5 μg/ml, Vaclav Horeijsi, Czech Academy of Sciences Prague). […]

[3] = tested on: human dendritic cells; experiment: migration (chemotaxis) of dendritic cells in modified Boyden chambers on ICAM-1; settings: 1 μM, 10 μM or 15 μM, 96 hours; chemokines CCL19 or CXCL12; FIG. 5
Method: as §1
The blood was mixed at a ratio of 1:1 with PBS (KCl 0.2 g/l, KH2PO4 0.2 g/l, NaCl 8 g/l, Na2HPO4 1.15 g/l, PAA, Cölbe)/2 mM EDTA and layered onto half the volume of Ficoll. Centrifugation was carried out at 300×g, 30 minutes with no brake. After the centrifugation, a centered white band appeared which contained the PBMC. This was picked up with PBS/2 mM EDTA, filled up to 50 ml and subjected to several washing steps at 640×g, 500×g, 400×g, 300×g and 200×g. Subsequently, the cells were picked up in a titer of 5×10^6/ml in “VLE-RPMI+/+”-medium (Biochrom, Berlin, containing 10% fetal calf serum (FCS) and 1% penicillin/streptomycin) and incubated for 90 minutes in an incubator at 37° C. [98.6° F.] and 5% CO2. During this time, the monocytes adhere to the bottom of the culture dish. […]
as §2

In the case of COc1nc(-c2ccc3c(c2)OCO3)n(-c2ccc(NC(=O)CSc3ccccc3)cc2)n1 [Compound 9], the “percentage of PI-positive (dead) cells” value ([1]; 2 hours, 24 hours and 72 hours) is reported as “did not rise in a concentration-dependent or time-dependent manner”, the cytotoxicity ([1]; conclusion from PI flow cytometry, up to 72 hours) is reported as “no cytotoxicity or at least no clearly detectable cytotoxicity” and the “inhibition of the adhesion of dendritic cells on the substrate ICAM-1” value [2] is reported as “concentration-dependent inhibition”. The “inhibition of the migration of dendritic cells on the substrate ICAM-1” value [3] was “concentration-dependent inhibition”.
